target: CDK4 (cyclin dependent kinase 4) (Homo sapiens, UniProt P11802); assay: CDK4 kinase selectivity assay; assay type: biochemical; conditions: Table 4 kinase selectivity; 10 = approximate value; read-out: IC50, Assay 3 CDK4
Protocol: Assays to test compound inhibition of other kinases were preformed using methods that measure the amount of phosphorylation of a biotinylated peptide substrate. Biotinylated peptide substrates were selected from the literature as appropriate for the enzyme being evaluated. […] Assay conditions vary slightly for each protein kinase, for example, insulin receptor kinase requires 10 mM MnCl2 for activity and Calmodulin-dependent protein kinase requires calmodulin and 2 mM CaCl2. The reaction mixture was dispensed into the wells of a streptavidin coated Flashplate and 1 μl drug stock in 100% DMSO was added to a 100 μl reaction volume resulting in a final concentration of 1% DMSO in the reaction. Enzyme was diluted in 50 mM Tris-HCl pH=8.0, 0.1% BSA and added to each well. The reaction was incubated for one hour at 30° C. in the presence of compound. After one hour the reaction mix was aspirated from the plate and the plate was washed with PBS containing 100 mM EDTA. The plate was read on a scintillation counter to determine ^33P-γ-ATP incorporated into the immobilized peptide. Test compounds were assayed in duplicate at 8 concentrations [100 tM, 10 μM, 1 μM, 100 nM, 10 nM, 1 nM, 100 μM, 10 μM]. A maximum and minimum signal for the assay was determined on each plate. The IC50 was calculated from the dose response curve of the percent inhibition of the maximum signal in the assay according to the formula [max signal−background/test compound signal−background (100)=% inhibition] by graphing the percent inhibition against the log concentration of test compound. Known inhibitor compounds appropriate for the kinase being assayed were also included on each plate.
VEGF-R (vascular endothelial growth factor receptor-2) is a fusion protein containing a polyhistidine tag at the N-terminus followed by amino acids 786-1343 of the rat VEGF-R2 kinase domain (GenBank Accession #U93306). CDK1 (cyclin dependent kinase 1) is isolated from insect cells expressing both the human CDK1 catalytic subunit and its positive regulatory subunit cyclin B (New England Biolabs, Beverly, Mass., Cat. #6020). CDK4 (cyclin dependent kinase 4) contains amino acids 769 to 921 of the mouse […] protein found in the GST-retinoblastoma protein construct (Santa Cruz Biotechnology, Santa Cruz, Calif.; Cat. #SC-4112). Insulin Receptor Kinase consists of residues 941-1313 of the cytoplasmic domain of the beta-subunit of the human insulin receptor (BIOMOL, Plymouth Meeting, Pa., Cat. #SE-195). Protein Kinase A is the catalytic subunit of cAMP dependent protein kinase-A purified from bovine heart (Upstate Biotech, Lake Placid, N.Y., Cat#14-114). PKC (protein kinase-C) is the gamma or beta isoform of the human protein produced in insect cells (BIOMOL, Plymouth Meeting, Pa., Cat. #SE-143). […]

Sequence of CDK4 (cyclin dependent kinase 4) (P11802 whole entry, species assumed): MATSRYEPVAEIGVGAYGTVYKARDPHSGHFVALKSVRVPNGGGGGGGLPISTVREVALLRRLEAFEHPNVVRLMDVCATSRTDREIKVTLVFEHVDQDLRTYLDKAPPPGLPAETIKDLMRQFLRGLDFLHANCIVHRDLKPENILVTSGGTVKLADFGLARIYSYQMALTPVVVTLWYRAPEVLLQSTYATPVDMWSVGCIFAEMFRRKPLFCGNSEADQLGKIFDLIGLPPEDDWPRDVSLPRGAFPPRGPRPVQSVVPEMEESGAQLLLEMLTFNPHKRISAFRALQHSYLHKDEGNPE
Sequence of CDK4 (cyclin dependent kinase 4) (P24385 whole entry partner, species assumed): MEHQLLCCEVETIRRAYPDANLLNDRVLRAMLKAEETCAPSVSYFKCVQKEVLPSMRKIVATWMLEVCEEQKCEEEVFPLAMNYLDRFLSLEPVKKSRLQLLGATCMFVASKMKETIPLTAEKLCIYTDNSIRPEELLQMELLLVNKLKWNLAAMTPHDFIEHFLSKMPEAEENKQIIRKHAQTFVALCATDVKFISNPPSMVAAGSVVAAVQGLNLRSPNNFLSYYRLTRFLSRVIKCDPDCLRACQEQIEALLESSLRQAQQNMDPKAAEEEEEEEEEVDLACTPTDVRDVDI

| SMILES | IC50 |
| --- | --- |
| OCCCNc1cncc(-c2cncc(Nc3cccc(Cl)c3)n2)c1 [Cmd 4] | ~10 µM |
| CN(C)CCCNc1cncc(-c2cncc(Nc3cccc(Cl)c3)n2)c1 [Cmd 35] | ~10 µM |
| OCCCCNc1cncc(-c2cncc(Nc3cccc(Cl)c3)n2)c1 [Cmd 32] | > 10 µM |
| CN(C)CCNc1cncc(-c2cncc(Nc3cccc(Cl)c3)n2)c1 [Cmd 33, N′-[5-[6-[(3-chlorophenyl)amino]pyrazinyl]-3-pyridinyl]-N^2,N^2-dimethyl-1,2-ethanediamine] | ~10 µM |

target: HER2 (Homo sapiens, UniProt P04626); assay: HER2 kinase selectivity assay; assay type: biochemical; conditions: Table 4 kinase selectivity; read-out: IC50, Assay 16 HER2
Protocol: Assays to test compound inhibition of other kinases were preformed using methods that measure the amount of phosphorylation of a biotinylated peptide substrate. Biotinylated peptide substrates were selected from the literature as appropriate for the enzyme being evaluated. The general procedure used to assay for kinase activity is as follows: A kinase reaction mix was prepared in 50 mM Tris-HCl pH=8, 10 mM MgCl2, 0.1 mM NaVO4, 1 mM DTT, 5-10 μM ATP, 0.25-1 μM biotinylated peptide substrate, 0.2-0.8 μCuries per well ^33P-γ-ATP [2000-3000 Ci/mmol]. Assay conditions vary slightly for each protein kinase, for example, insulin receptor kinase requires 10 mM MnCl2 for activity and Calmodulin-dependent protein kinase requires calmodulin and 2 mM CaCl2. The reaction mixture was dispensed into the wells of a streptavidin coated Flashplate and 1 μl drug stock in 100% DMSO was added to a 100 μl reaction volume resulting in a final concentration of 1% DMSO in the reaction. Enzyme was diluted in 50 mM Tris-HCl pH=8.0, 0.1% BSA and added to each well. The reaction was incubated for one hour at 30° C. in the presence of compound. After one hour the reaction mix was aspirated from the plate and the plate was washed with PBS containing 100 mM EDTA. The plate was read on a scintillation counter to determine ^33P-γ-ATP incorporated into the immobilized peptide. Test compounds were assayed in duplicate at 8 concentrations [100 tM, 10 μM, 1 μM, 100 nM, 10 nM, 1 nM, 100 μM, 10 μM]. A maximum and minimum signal for the assay was determined on each plate. The IC50 was calculated from the dose response curve of the percent inhibition of the maximum signal in the assay according to the formula [max signal−background/test compound signal−background (100)=% inhibition] by graphing the percent inhibition against the log concentration of test compound. Known inhibitor compounds appropriate for the kinase being assayed were also included on each plate.

Sequence of HER2 (P04626 23-1255, species assumed): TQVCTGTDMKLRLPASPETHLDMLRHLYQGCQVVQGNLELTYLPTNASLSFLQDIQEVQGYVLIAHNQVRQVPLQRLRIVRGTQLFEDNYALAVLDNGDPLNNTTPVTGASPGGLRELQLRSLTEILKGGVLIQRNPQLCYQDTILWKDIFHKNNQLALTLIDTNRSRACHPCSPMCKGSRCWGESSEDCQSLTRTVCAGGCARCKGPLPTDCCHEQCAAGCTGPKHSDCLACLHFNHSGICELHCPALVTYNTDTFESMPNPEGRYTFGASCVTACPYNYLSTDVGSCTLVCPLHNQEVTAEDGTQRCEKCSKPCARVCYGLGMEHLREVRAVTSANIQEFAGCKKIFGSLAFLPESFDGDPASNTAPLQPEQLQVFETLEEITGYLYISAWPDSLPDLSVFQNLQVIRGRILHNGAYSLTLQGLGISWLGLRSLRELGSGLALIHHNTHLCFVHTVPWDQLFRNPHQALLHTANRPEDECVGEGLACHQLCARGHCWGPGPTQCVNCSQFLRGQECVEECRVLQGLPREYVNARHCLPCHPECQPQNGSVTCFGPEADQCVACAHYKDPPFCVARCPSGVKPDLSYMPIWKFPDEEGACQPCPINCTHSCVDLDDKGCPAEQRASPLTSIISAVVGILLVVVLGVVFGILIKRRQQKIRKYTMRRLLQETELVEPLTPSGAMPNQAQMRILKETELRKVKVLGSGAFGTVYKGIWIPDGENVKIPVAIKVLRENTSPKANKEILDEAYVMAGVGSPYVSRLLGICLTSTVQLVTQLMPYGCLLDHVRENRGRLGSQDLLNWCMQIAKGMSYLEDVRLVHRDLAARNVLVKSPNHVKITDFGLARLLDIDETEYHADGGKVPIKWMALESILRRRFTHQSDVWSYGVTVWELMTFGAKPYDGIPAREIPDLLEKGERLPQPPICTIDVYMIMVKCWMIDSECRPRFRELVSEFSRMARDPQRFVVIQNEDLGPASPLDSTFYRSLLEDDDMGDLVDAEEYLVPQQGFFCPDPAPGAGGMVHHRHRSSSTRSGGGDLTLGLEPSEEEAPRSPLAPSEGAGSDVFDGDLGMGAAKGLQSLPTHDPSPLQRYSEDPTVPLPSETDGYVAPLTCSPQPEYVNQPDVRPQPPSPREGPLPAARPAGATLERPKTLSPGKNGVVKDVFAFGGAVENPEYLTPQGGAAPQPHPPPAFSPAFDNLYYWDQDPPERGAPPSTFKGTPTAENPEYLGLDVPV

| SMILES | IC50 |
| --- | --- |
| Clc1cccc(Nc2cncc(-c3cncc(NCCCc4cccnc4)c3)n2)c1 [Cmd 72] | 9.7 µM |
| Clc1cccc(Nc2cncc(-c3cncc(NCCCc4ccncc4)c3)n2)c1 [Cmd 71] | > 100 µM |

Now from value to molecule:

| IC50 | SMILES |
| --- | --- |
| 7.2 µM | Clc1cccc(Nc2cncc(-c3cncc(NCCCN4CCCCC4)c3)n2)c1 [Cmd 73] |
| 2.24 µM | Clc1cccc(Nc2cncc(-c3cncc(NCCCn4cncn4)c3)n2)c1 [Cmd 76] |
| 3 µM | Clc1cccc(Nc2cncc(-c3cncc(NCCCn4cccn4)c3)n2)c1 [Cmd 75] |
